Test results from PubChem BioAssay (NCI).
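Five compound concentrations were applied to cells in 96-well plates for 48 hours; endpoints were derived by simple linear interpolation of the resulting dose-response curve. GI50 is the concentration that inhibits growth by half. TGI marks complete inhibition of growth.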

Columns and labels:
Assay in all cases: NCI tumour cell line growth inhibition, 48 h
NCI-H23 lung = system: NCI-H23 lung
NCI-H460 lung = system: NCI-H460 lung
NCI-H522 lung = system: NCI-H522 lung
NCI/ADR-RES ovarian = system: NCI/ADR-RES ovarian
OVCAR-3 ovarian = system: OVCAR-3 ovarian
OVCAR-4 ovarian = system: OVCAR-4 ovarian
OVCAR-5 ovarian = system: OVCAR-5 ovarian
OVCAR-8 ovarian = system: OVCAR-8 ovarian
PC-3 prostate = system: PC-3 prostate
RPMI-8226 leukemia = system: RPMI-8226 leukemia
RXF 393 renal = system: RXF 393 renal
SF-268 CNS = system: SF-268 CNS
SF-295 CNS = system: SF-295 CNS
SF-539 CNS = system: SF-539 CNS
SK-MEL-2 melanoma = system: SK-MEL-2 melanoma
SK-MEL-28 melanoma = system: SK-MEL-28 melanoma
SK-MEL-5 melanoma = system: SK-MEL-5 melanoma
SK-OV-3 ovarian = system: SK-OV-3 ovarian
SN12C renal = system: SN12C renal
SNB-19 CNS = system: SNB-19 CNS
SNB-75 CNS = system: SNB-75 CNS
SR leukemia = system: SR leukemia
SW-620 colon = system: SW-620 colon
T-47D breast = system: T-47D breast
TK-10 renal = system: TK-10 renal
U251 CNS = system: U251 CNS
UACC-257 melanoma = system: UACC-257 melanoma
UACC-62 melanoma = system: UACC-62 melanoma
UO-31 renal = system: UO-31 renal

## N#Cc1c(NC(=O)CN2CCOCC2)sc2c1CCCC2
NCI-H23 lung
  GI50: > 25 µM
  TGI: > 25 µM
NCI-H460 lung
  GI50: > 25 µM
  TGI: > 25 µM
NCI-H522 lung
  GI50: > 25 µM
  TGI: > 25 µM
NCI/ADR-RES ovarian
  GI50: > 25 µM
  TGI: > 25 µM
OVCAR-3 ovarian
  GI50: > 25 µM
  TGI: > 25 µM
OVCAR-4 ovarian
  GI50: > 25 µM
  TGI: > 25 µM
OVCAR-5 ovarian
  GI50: > 25 µM
  TGI: > 25 µM
OVCAR-8 ovarian
  GI50: > 25 µM
  TGI: > 25 µM
PC-3 prostate
  GI50: > 25 µM
  TGI: > 25 µM
RPMI-8226 leukemia
  GI50: > 25 µM
  TGI: > 25 µM
RXF 393 renal
  GI50: > 25 µM
  TGI: > 25 µM
SF-268 CNS
  GI50: > 25 µM
  TGI: > 25 µM
SF-295 CNS
  GI50: > 25 µM
  TGI: > 25 µM
SF-539 CNS
  GI50: > 25 µM
  TGI: > 25 µM
SK-MEL-2 melanoma
  GI50: > 25 µM
  TGI: > 25 µM
SK-MEL-28 melanoma
  GI50: > 25 µM
  TGI: > 25 µM
SK-MEL-5 melanoma
  GI50: > 25 µM
  TGI: > 25 µM
SK-OV-3 ovarian
  GI50: > 25 µM
  TGI: > 25 µM
SN12C renal
  GI50: > 25 µM
  TGI: > 25 µM
SNB-19 CNS
  GI50: > 25 µM
  TGI: > 25 µM
SNB-75 CNS
  GI50: > 25 µM
  TGI: > 25 µM
SR leukemia
  GI50: > 25 µM
  TGI: > 25 µM
SW-620 colon
  GI50: > 25 µM
  TGI: > 25 µM
T-47D breast
  GI50: > 25 µM
  TGI: > 25 µM
TK-10 renal
  GI50: > 25 µM
  TGI: > 25 µM
U251 CNS
  GI50: > 25 µM
  TGI: > 25 µM
UACC-257 melanoma
  GI50: > 25 µM
  TGI: > 25 µM
UACC-62 melanoma
  GI50: > 25 µM
  TGI: > 25 µM
UO-31 renal
  GI50: > 25 µM
  TGI: > 25 µM
